Results as given in patent US4990497A, “Antifungal antibiotics” (priority 1989, dated 1991).
Converted amounts (≈) assume the structure as drawn. “Also recorded” adds a separate entry of the source. Where two headings read alike, the source gives them in different places.

Assays:
[1] = in vitro; details: dog, mdck
[2] = in vitro; details: monkey, vero cells
[3] = Acute toxicity in mice; assay type: in vivo
Protocol: The acute toxicity of BU-3608 was determined in mice after single intravenous and intramuscular administrations.

[4] = system: Fusarium moniliforme; assay: Antifungal MIC, serial agar dilution (Sabouraud dextrose agar), Fusarium moniliforme; assay type: cell-based; details: Fusarium verticillioides
[5] = system: Cryptococcus neoformans IAM 4514; assay: In vivo antifungal activity, Cryptococcus neoformans intravenous infection in mice; details: IAM4514, in Mus musculus, im, 480 h, read-out: PD50
Protocol: In vivo activities of BU-3608, BU-3608 B, and BU-3608 C were tested against Candida albicans, Aspergillus fumigatus, and Cryptococcus neoformans infections in mice. Test organisms were cultured for 18 hours at 28° C. in YGP medium (yeast extract, glucose, peptone, K2 HPO4, MgSO4) and then suspended in saline. Male ICR mice weighing 20 to 24 g were infected intravenously with about 20 times (BU-3608) or 10 times (BU-3608 B and C) the median lethal dose of the test fungi. The antibiotics at various dose levels were administered to groups of 5 mice each either intravenously just after the fungal infection or intramuscularly twice a day on days 0 and 1. The dose that protects 50% of the animals from infection (PD50, mg/kg) was calculated from survival rates recorded on the 20th day after the fungal challenge.
**Compounds were administered im b.i.d. on days 0 and 1.

[6] = system: Cryptococcus neoformans; assay: Antifungal MIC, broth dilution (Sabouraud dextrose broth), Cryptococcus neoformans
Protocol: (§1) The minimum inhibitory concentrations (MICs) against various fungi were determined by serial agar and broth dilution methods using Sabouraud dextrose agar and broth. The inoculum size of the test organism was adjusted to 10^5 CFUs/ml (BU-3608) or 10^5 -10^9 CFUs/ml (BU-3608 B and C) in the agar dilution method, and 10^4 -10^5 CFUs/ml (BU-3608) or 10^4 -10^6 CFUs/ml (BU-3608 B and C) in the broth dilution method.
(§2) ^(1) Determined after incubation for 72 hours at 28° C.
(§3) ^(2) Inoculum size: 10^5 CFU/ml for agar dilution and 10^4
-10^5 CFU/ml for broth dilution.
(§4) ^(3) Values in parenthesis indicate partial inhibition.
(§5) *Determined after incubation for 48-72 hours at 28° C.
(§6) **Inoculum size : 10^4 -10^6 CFU/ml for broth dilution and
10^5 -10^9 CFU/ml for agar dilution.
(§7) Values in parenthesis indicate partial inhibition.

[7] = system: Mucor spinosus; assay: Antifungal MIC, serial agar dilution (Sabouraud dextrose agar), Mucor spinosus; details: IFO5317, 72 h
Protocol: as §1, §2

[8] = system: Aspergillus flavus; assay: Antifungal MIC, serial agar dilution (Sabouraud dextrose agar), Aspergillus flavus; details: 72 h
Protocol: as §1, §2

[9] = system: Aspergillus fumigatus; assay: Antifungal MIC, broth dilution (Sabouraud dextrose broth), Aspergillus fumigatus
Protocol: as §1, §2, §3
-10^5 CFU/ml for broth dilution.
as §4, §5, §6
10^5 -10^9 CFU/ml for agar dilution.
as §7

[10] = Solubility; assay type: physicochemical; details: free form
[11] = system: Candida albicans; assay: Antifungal MIC, broth dilution (Sabouraud dextrose broth), Candida albicans
Protocol: as §1, §2, §3
-10^5 CFU/ml for broth dilution.
as §4, §5, §6
10^5 -10^9 CFU/ml for agar dilution.
as §7

[12] = system: Piricularia oryzae; assay: microbe, parasite or virus in culture; assay type: cell-based
[13] = system: Sporothrix schenckii; assay: Antifungal MIC, serial agar dilution (Sabouraud dextrose agar), Sporothrix schenckii; assay type: cell-based
[14] = system: Cryptococcus neoformans; assay: Antifungal MIC, serial agar dilution (Sabouraud dextrose agar), Cryptococcus neoformans; assay type: cell-based
[15] = system: Candida albicans; assay: Antifungal MIC, serial agar dilution (Sabouraud dextrose agar), Candida albicans; assay type: cell-based
[16] = system: Trichophyton mentagrophytes; assay: Antifungal MIC, broth dilution (Sabouraud dextrose broth), Trichophyton mentagrophytes
Protocol: as §1, §2, §3
-10^5 CFU/ml for broth dilution.
as §4, §5, §6
10^5 -10^9 CFU/ml for agar dilution.
as §7

[17] = system: influenza virus A; assay: Cytopathic effect (CPE) reduction assay, influenza virus A in MDCK cells; assay type: cell-based; details: unidentified influenza virus, 72 h, read-out: ID50 (CPE reduction)
[18] = system: Petriellidium boydii; assay: Antifungal MIC, serial agar dilution (Sabouraud dextrose agar), Petriellidium boydii; details: Scedosporium boydii, IFO8073, 72 h
Protocol: as §1, §2

[19] = system: Candida albicans A9540; assay: In vivo antifungal activity, Candida albicans intravenous infection in mice; design: species or system mice (male ICR); details: for ED50: Candida albicans, read-out: PD50; for Number of survivors/tested: iv just after challenge
Protocol: The methyl and ethyl esters of BU-3608 were also evaluated against C. albicans A9540 infections in mice using the protocol described above. […] It is postulated that these esters are hydrolyzed in vivo to provide the active parent compound.

[20] = system: Aspergillus fumigatus; assay: Antifungal MIC, serial agar dilution (Sabouraud dextrose agar), Aspergillus fumigatus; assay type: cell-based
[21] = system: Trichophyton mentagrophytes; assay: Antifungal MIC, serial agar dilution (Sabouraud dextrose agar), Trichophyton mentagrophytes; assay type: cell-based
[22] = system: Blastomyces dermatitidis; assay: Antifungal MIC, serial agar dilution (Sabouraud dextrose agar), Blastomyces dermatitidis; details: 72 h
Protocol: as §1, §2

[23] = dose 3.1 mg/kg/inj., day 20, challenge 20x (BU-3608) or 10x (B, C) median lethal dose
[24] = dose 6.3 mg/kg/inj., day 20, challenge 20x (BU-3608) or 10x (B, C) median lethal dose
[25] = dose 12.5 mg/kg/inj., day 20, challenge 20x (BU-3608) or 10x (B, C) median lethal dose
[26] = dose 25 mg/kg/inj., day 20, challenge 20x (BU-3608) or 10x (B, C) median lethal dose
[27] = dose 50 mg/kg/inj., day 20, challenge 20x (BU-3608) or 10x (B, C) median lethal dose
[28] = Fusarium moniliforme A2284, 48-72 h at 28° C., 10^5-10^9 CFU/ml
[29] = IAM2034, read-out: MIC, partial inhibition (value in parenthesis)
[30] = read-out: MIC, partial inhibition (value in parenthesis)
[31] = Sporothrix schenckii IFO8158, 48-72 h at 28° C., 10^5-10^9 CFU/ml
[32] = Cryptococcus neoformans D49, 48-72 h at 28° C., 10^5-10^9 CFU/ml
[33] = Cryptococcus neoformans IAM4514, 48-72 h at 28° C., 10^5-10^9 CFU/ml
[34] = Candida albicans A9540, 48-72 h at 28° C., 10^5-10^9 CFU/ml
[35] = Candida albicans IAM4888, 48-72 h at 28° C., 10^5-10^9 CFU/ml
[36] = Aspergillus fumigatus IAM2034, 48-72 h at 28° C., 10^5-10^9 CFU/ml
[37] = Aspergillus fumigatus IAM2530, 48-72 h at 28° C., 10^5-10^9 CFU/ml
[38] = Trichophyton mentagrophytes #4329, 48-72 h at 28° C., 10^5-10^9 CFU/ml
[39] = Trichophyton mentagrophytes D155, 48-72 h at 28° C., 10^5-10^9 CFU/ml

With `CN[C@@H]1[C@H](O[C@@H]2OC[C@@H](O)[C@H](O)[C@H]2O)[C@@H](O)[C@H](OC2c3cc(C)c(C(=O)N[C@H](C)C(=O)O)c(O)c3-c3c(cc4c(c3O)C(=O)c3cc(OC)cc(O)c3C4=O)C2O)O[C@@H]1C` (stereo partly shown) [BU-3608] the CC50 at 72 h [1] was over 100 µg/mL, the CC50 at 72 h [2] was over 100 µg/mL and the sign of toxicity ([3]; mice, single im dose of 400 mg/kg) was “no sign of toxicity”. The LD50 ([3]; mouse, in vivo, iv) was 140 mg/kg, the MIC ([4]; Fusarium moniliforme A2284, 72 h at 28° C., 10^5 CFU/ml) was 3.1 µg/mL (≈ 3.69 µM) and the ED50 [5] was 3.5 mg/kg. The MIC ([6]; IAM4514, 72 h) was 0.4 µg/mL (≈ 0.476 µM), the MIC [7] was 50 µg/mL (≈ 59.5 µM) and the MIC [8] was 1.6 µg/mL (≈ 1.9 µM). The MIC ([9]; IAM2034, 72 h) was 12.5 µg/mL (≈ 14.9 µM), the Solubility [10] was “Soluble in dimethyl sulfoxide, dimethyl formamide, acidic and alkaline water; also recorded: Slightly soluble in water, methanol, and ethanol; also recorded: Insoluble in ethyl acetate, chloroform, benzene, n-hexane, and petroleum ether” and the MIC ([11]; 72 h) was 6.3 µg/mL (≈ 7.49 µM). For the same molecule, the MIC ([12]; 72 h) was 3.1 µg/mL (≈ 3.69 µM), the MIC ([13]; Sporothrix schenckii IFO8158, 72 h at 28° C., 10^5 CFU/ml) was 0.8 µg/mL (≈ 0.951 µM) and the MIC ([14]; Cryptococcus neoformans D49, 72 h at 28° C., 10^5 CFU/ml) was 0.8 µg/mL (≈ 0.951 µM). For the same molecule, the MIC ([14]; Cryptococcus neoformans IAM4514, 72 h at 28° C., 10^5 CFU/ml) was 0.8 µg/mL (≈ 0.951 µM), the MIC ([15]; Candida albicans A9540, 72 h at 28° C., 10^5 CFU/ml) was 25 µg/mL (≈ 29.7 µM) and the MIC ([15]; Candida albicans IAM4888, 72 h at 28° C., 10^5 CFU/ml) was 25 µg/mL (≈ 29.7 µM). It also gave an MIC ([16]; 72 h) of 25 µg/mL (≈ 29.7 µM), an MIC ([16]; 72 h, read-out: MIC, partial inhibition (value in parenthesis)) of 6.3 µg/mL (≈ 7.49 µM) and an IC50 [17] of 4.4 µg/mL (≈ 5.23 µM). For the same molecule, the MIC [18] was 100 µg/mL (≈ 119 µM), the ED50 ([19]; A9540, 480 h, iv just after fungal challenge, day 20, challenge 20x (BU-3608) or 10x (B, C) median lethal dose) was 7.2 mg/kg and the Number of survivors/tested ([19]; dose 1.6 mg/kg/inj., day 20, challenge 20x median lethal dose) was 1/5. For the same molecule, the Number of survivors/tested [19, 23] was 2/5, the Number of survivors/tested [19, 24] was 2/5 and the Number of survivors/tested [19, 25] was 5/5. The Number of survivors/tested [19, 26] was 5/5, the Number of survivors/tested [19, 27] was 5/5 and the MIC ([20]; Aspergillus fumigatus IAM2034, 72 h at 28° C., 10^5 CFU/ml) was 3.1 µg/mL (≈ 3.69 µM). It also gave an MIC ([20]; Aspergillus fumigatus IAM2530, 72 h at 28° C., 10^5 CFU/ml) of 3.1 µg/mL (≈ 3.69 µM), an MIC ([21]; 72 h, Trichophyton mentagrophytes #4329, 72 h at 28° C., 10^5 CFU/ml) of 25 µg/mL (≈ 29.7 µM) and an MIC ([21]; 72 h, Trichophyton mentagrophytes D155, 72 h at 28° C., 10^5 CFU/ml) of over 100 µg/mL. The MIC [22] was 6.3 µg/mL (≈ 7.49 µM).

With `COc1cc(O)c2c(c1)C(=O)c1c(cc3c(c1O)-c1c(cc(C)c(C(=O)N[C@H](C)C(=O)O)c1O)C(O[C@@H]1O[C@H](C)[C@H](N)[C@H](O[C@@H]4OC[C@@H](O)[C@H](O)[C@H]4O)[C@H]1O)C3O)C2=O` (stereo partly shown) the MIC [4, 28] was 6.3 µg/mL (≈ 7.62 µM), the MIC ([9]; IAM2034) was 6.3 µg/mL (≈ 7.62 µM) and the MIC [9, 29] was 3.1 µg/mL (≈ 3.75 µM). It also gave an MIC [11] of 6.3 µg/mL (≈ 7.62 µM), an MIC [11, 30] of 3.1 µg/mL (≈ 3.75 µM) and an MIC [12] of 3.1 µg/mL (≈ 3.75 µM). It also gave an MIC [13, 31] of 1.6 µg/mL (≈ 1.94 µM), an MIC [14, 32] of 0.8 µg/mL (≈ 0.968 µM) and an MIC [14, 33] of 0.8 µg/mL (≈ 0.968 µM). The MIC [15, 34] was 6.3 µg/mL (≈ 7.62 µM), the MIC [15, 35] was 6.3 µg/mL (≈ 7.62 µM) and the MIC [16] was 6.3 µg/mL (≈ 7.62 µM). The MIC [16, 30] was 1.3 µg/mL (≈ 1.57 µM), the MIC [20, 36] was 6.3 µg/mL (≈ 7.62 µM) and the MIC [20, 37] was 3.1 µg/mL (≈ 3.75 µM). For the same molecule, the MIC [21, 38] was 6.3 µg/mL (≈ 7.62 µM) and the MIC [21, 39] was 3.1 µg/mL (≈ 3.75 µM).

`CN[C@@H]1[C@H](O)[C@@H](O)[C@H](OC2c3cc(C)c(C(=O)N[C@H](C)C(=O)O)c(O)c3-c3c(cc4c(c3O)C(=O)c3cc(OC)cc(O)c3C4=O)C2O)O[C@@H]1C` (stereo partly shown) [BU-3608 B] gave a CC50 at 72 h [1] of over 100 µg/mL, an MIC [4, 28] of over 100 µg/mL and an ED50 [5] of 11 mg/kg. The MIC ([6]; IAM4514) was 1.6 µg/mL (≈ 2.26 µM), the MIC ([9]; IAM2034) was 50 µg/mL (≈ 70.6 µM) and the MIC [9, 29] was 12.5 µg/mL (≈ 17.6 µM). For the same molecule, the MIC [11] was 3.1 µg/mL (≈ 4.37 µM), the MIC [11, 30] was 3.1 µg/mL (≈ 4.37 µM) and the MIC ([12]; 48-72 h at 28° C., read-out: MIC) was 6.3 µg/mL (≈ 8.89 µM). For the same molecule, the MIC [13, 31] was 3.1 µg/mL (≈ 4.37 µM), the MIC [14, 32] was 0.8 µg/mL (≈ 1.13 µM) and the MIC [14, 33] was 0.8 µg/mL (≈ 1.13 µM). For the same molecule, the MIC [15, 34] was 3.1 µg/mL (≈ 4.37 µM), the MIC [15, 35] was 1.6 µg/mL (≈ 2.26 µM) and the MIC [16] was 6.3 µg/mL (≈ 8.89 µM). For the same molecule, the MIC [16, 30] was 3.1 µg/mL (≈ 4.37 µM), the IC50 [17] was 8.4 µg/mL (≈ 11.9 µM) and the ED50 ([19]; A9540, im, 480 h) was 22 mg/kg. The ED50 ([19]; A9540, iv, 480 h) was 11 mg/kg, the Number of survivors/tested [19, 23] was 0/5 and the Number of survivors/tested [19, 24] was 0/5. For the same molecule, the Number of survivors/tested [19, 25] was 3/5, the Number of survivors/tested [19, 26] was 3/5 and the Number of survivors/tested [19, 27] was 4/5. For the same molecule, the MIC [20, 36] was 6.3 µg/mL (≈ 8.89 µM), the MIC [20, 37] was 6.3 µg/mL (≈ 8.89 µM) and the MIC [21, 38] was 6.3 µg/mL (≈ 8.89 µM). It also gave an MIC [21, 39] of 6.3 µg/mL (≈ 8.89 µM).
